Laboratory results reported in patent US11866450B2, “Modulators of Cystic Fibrosis Transmembrane Conductance regulator, pharmaceutical compositions, methods of treatment, and process for making the modulators” (priority 2018, dated 2024).
pEC50: −log10 of the molar value.

Biological target: CFTR-mediated chloride transport (Homo sapiens, UniProt P13569)
Format: cell-based
Conditions: enteroid cells incubated with test compound 18-24 hours, acute 10 μM forskolin and 300 nM Compound III; for Max. Activity: % of chloride transport with 3 μM Compound A, 3 μM Compound II and 300 nM acute Compound III triple combination control
In short: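 Membrane-potential fluorescence AUC over 15 min quantified CFTR chloride transport after acute forskolin (10 μM), IBMX (100 μM) and Compound III (300 nM) in chloride-free buffer. Human enteroid cells were pretreated with compound for 18–24 h; % Activity is relative to 3 μM Compound A + 3 μM Compound II + 300 nM Compound III.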

Chain of CFTR-mediated chloride transport (P13569 whole entry, looked up): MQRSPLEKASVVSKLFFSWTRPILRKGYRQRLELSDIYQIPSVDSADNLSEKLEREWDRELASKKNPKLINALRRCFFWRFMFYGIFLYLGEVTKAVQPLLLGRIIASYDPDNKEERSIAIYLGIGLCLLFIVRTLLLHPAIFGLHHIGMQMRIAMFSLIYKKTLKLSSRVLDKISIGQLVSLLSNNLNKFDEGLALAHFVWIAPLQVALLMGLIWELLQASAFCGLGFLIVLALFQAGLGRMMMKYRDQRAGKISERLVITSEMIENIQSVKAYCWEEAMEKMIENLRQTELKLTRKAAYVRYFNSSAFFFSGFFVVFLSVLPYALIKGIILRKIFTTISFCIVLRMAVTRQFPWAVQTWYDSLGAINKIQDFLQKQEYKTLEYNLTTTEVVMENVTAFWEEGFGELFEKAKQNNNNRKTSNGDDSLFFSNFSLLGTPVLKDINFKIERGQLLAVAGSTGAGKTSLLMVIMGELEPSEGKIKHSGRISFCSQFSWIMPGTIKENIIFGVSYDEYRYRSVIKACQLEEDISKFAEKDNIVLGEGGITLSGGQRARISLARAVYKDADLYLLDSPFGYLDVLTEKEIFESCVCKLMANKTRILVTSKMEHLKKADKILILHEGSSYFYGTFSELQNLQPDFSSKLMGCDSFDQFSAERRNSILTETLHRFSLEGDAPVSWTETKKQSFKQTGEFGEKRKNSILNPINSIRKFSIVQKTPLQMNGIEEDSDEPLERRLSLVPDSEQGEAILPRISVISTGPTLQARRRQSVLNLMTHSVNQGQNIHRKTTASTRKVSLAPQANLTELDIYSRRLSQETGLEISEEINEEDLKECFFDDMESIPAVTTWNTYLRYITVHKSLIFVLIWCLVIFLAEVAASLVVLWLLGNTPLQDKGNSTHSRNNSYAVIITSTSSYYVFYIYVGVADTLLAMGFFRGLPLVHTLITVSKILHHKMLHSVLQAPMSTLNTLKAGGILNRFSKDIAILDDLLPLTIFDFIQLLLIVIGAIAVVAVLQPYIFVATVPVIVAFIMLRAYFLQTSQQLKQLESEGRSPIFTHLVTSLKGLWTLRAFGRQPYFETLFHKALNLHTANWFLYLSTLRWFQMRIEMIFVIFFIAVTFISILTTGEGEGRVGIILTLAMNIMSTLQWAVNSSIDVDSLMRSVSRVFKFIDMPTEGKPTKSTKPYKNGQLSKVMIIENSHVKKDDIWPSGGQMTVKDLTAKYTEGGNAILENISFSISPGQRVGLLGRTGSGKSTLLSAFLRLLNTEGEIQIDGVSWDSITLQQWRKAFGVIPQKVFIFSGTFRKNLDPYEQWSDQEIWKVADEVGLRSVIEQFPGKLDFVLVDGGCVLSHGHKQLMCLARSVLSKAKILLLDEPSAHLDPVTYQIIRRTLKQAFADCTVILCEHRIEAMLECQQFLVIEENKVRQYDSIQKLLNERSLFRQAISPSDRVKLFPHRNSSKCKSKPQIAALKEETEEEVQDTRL

Compound | pEC50 | Max. Activity
CC1(C)CC[C@H]2CCCNc3cccc(n3)S(=O)(=O)NC(=O)c3ccc(-n4ccc(OCCC5(C(F)(F)F)CC5)n4)nc3N21 [Compound 34, (15R)-12,12-dimethyl-8-(3-{2-[1-(trifluoromethyl)cyclopropyl]ethoxy}-1H-pyrazol-1-yl)-2λ^6-thia-3,9,11,19,24-pentaazatetracyclo[18.3.1.05,10.011,15]tetracosa-1(23),5,7,9,20(24),21-hexaene-2,2,4-trione] | > 6.00 | +++ (+++ is >60%)
CC1CCC2CN(c3nc(-n4ccc(OCCC5(C(F)(F)F)CC5)n4)ccc3C(=O)NS(=O)(=O)c3cccc(n3)N1)C(C)(C)C2 (centres unmarked) [Compound 35, 12,12,17-trimethyl-8-(3-{2-[1-(trifluoromethyl)cyclopropyl]ethoxy}-1H-pyrazol-1-yl)-2λ^6-thia-3,9,11,18,23-pentaazatetracyclo[17.3.1.111,14.05,10]tetracosa-1(23),5(10),6,8,19,21-hexaene-2,2,4-trione] | > 6.00 | +++ (+++ is >60%)
CC1CCC2CN(c3nc(-n4ccc(OCCC5(C(F)(F)F)CC5)n4)ccc3C(=O)NS(=O)(=O)c3cccc(n3)N1)C(C)(C)C2 (centres unmarked) [Compound 36, 12,12,17-trimethyl-8-(3-{2-[1-(trifluoromethyl)cyclopropyl]ethoxy}-1H-pyrazol-1-yl)-2λ^6-thia-3,9,11,18,23-pentaazatetracyclo[17.3.1.111,14.05,10]tetracosa-1(23),5(10),6,8,19,21-hexaene-2,2,4-trione] | > 6.00 | +++ (+++ is >60%)
CC1(C)CCC2CNc3cccc(n3)S(=O)(=O)NC(=O)c3ccc(-n4ccc(OCCC5(C(F)(F)F)CC5)n4)nc3N21 (centres unmarked) [Compound 41, 7,7-dimethyl-11-(3-{2-[1-(trifluoromethyl)cyclopropyl]ethoxy}-1H-pyrazol-1-yl)-17λ^6-thia-2,8,10,16,22-pentaazatetracyclo[16.3.1.04,8.09,14]docosa-1(22),9,11,13,18,20-hexaene-15,17,17-trione] | < 5.52 | + (+ is <30%)
CC1(C)CC2CCCNc3cccc(n3)S(=O)(=O)NC(=O)c3ccc(-n4ccc(OCC5C(C)(C)C5(C)C)n4)nc3N1C2 (centres unmarked) [Compound 42, 12,12-dimethyl-8-{3-[(2,2,3,3-tetramethylcyclopropyl)methoxy]-1H-pyrazol-1-yl}-2λ^6-thia-3,9,11,18,23-pentaazatetracyclo[17.3.1.111,14.05,10]tetracosa-1(22),5,7,9,19(23),20-hexaene-2,2,4-trione] | > 6.00 | +++ (+++ is >60%)
CC1(C)C[C@H]2CCCNc3cccc(n3)S(=O)(=O)NC(=O)c3ccc(-n4ccc(OCCC(C5CC5)C5CC5)n4)nc3N1C2 [Compound 65, (14R)-8-[3-(3,3-dicyclopropylpropoxy)-1H-pyrazol-1-yl]-12,12-dimethyl-2λ^6-thia-3,9,11,18,23-pentaazatetracyclo[17.3.1.111,14.05,10]tetracosa-1(22),5,7,9,19(23),20-hexaene-2,2,4-trione] | > 6.00 | ++ (++ is 30-60%)
CC(C)(C)CCC1CCN(c2ccc3c(n2)N2C[C@@H](CCCNc4cccc(n4)S(=O)(=O)NC3=O)CC2(C)C)C1=O (stereo partly drawn) [Compound 79, (14S)-8-[3-(3,3-dimethylbutyl)-2-oxopyrrolidin-1-yl]-12,12-dimethyl-2λ^6-thia-3,9,11,18,23-pentaazatetracyclo[17.3.1.111,14.05,10]tetracosa-1(23),5,7,9,19,21-hexaene-2,2,4-trione] | > 6.00 | ++ (++ is 30-60%)
CC1(C)C[C@H]2CCCn3ccc(n3)S(=O)(=O)NC(=O)c3ccc(-n4ccc(OCCC5(C(F)(F)F)CC5)n4)nc3N1C2 [Compound 84, (18R)-20,20-Dimethyl-4-(3-{2-[1-(trifluoromethyl)cyclopropyl]ethoxy}-1H-pyrazol-1-yl)-10λ^6-thia-1,3,9,14,22-pentaazatetracyclo[16.2.1.111,14.02,7]docosa-2,4,6,11(22),12-pentaene-8,10,10-trione] | < 5.52 | + (+ is <30%)
CC1(C)C[C@@H]2CCCn3ccc(n3)S(=O)(=O)NC(=O)c3ccc(-n4ccc(OCCC5(C(F)(F)F)CC5)n4)nc3N1C2 [Compound 85, (18S)-20,20-dimethyl-4-(3-{2-[1-(trifluoromethyl)cyclopropyl]ethoxy}-1H-pyrazol-1-yl)-10λ^6-thia-1,3,9,14,22-pentaazatetracyclo[16.2.1.111,14.02,7]docosa-2,4,6,11(22),12-pentaene-8,10,10-trione] | > 6.00 | +++ (+++ is >60%)
CC1CN(c2ccc3c(n2)N2C[C@@H](CCCNc4cccc(n4)S(=O)(=O)NC3=O)CC2(C)C)C(=O)C1CCC(C)(C)C (stereo partly drawn) [Compound 97, (14S)-8-[3-(3,3-dimethylbutyl)-4-methyl-2-oxopyrrolidin-1-yl]-12,12-dimethyl-2λ^6-thia-3,9,11,18,23-pentaazatetracyclo[17.3.1.111,14.05,10]tetracosa-1(22),5,7,9,19(23),20-hexaene-2,2,4-trione] | > 6.00 | +++ (+++ is >60%)
CC(C)(C)CCC1C(=O)N(c2ccc3c(n2)N2C[C@@H](CCCNc4cccc(n4)S(=O)(=O)NC3=O)CC2(C)C)CC1(C)C (stereo partly drawn) [Compound 98, (14S)-8-[3-(3,3-Dimethylbutyl)-4,4-dimethyl-2-oxopyrrolidin-1-yl]-12,12-dimethyl-2λ^6-thia-3,9,11,18,23-pentaazatetracyclo[17.3.1.111,14.05,10]tetracosa-1(22),5,7,9,19(23),20-hexaene-2,2,4-trione] | > 6.00 | ++ (++ is 30-60%)
CC1(CC2CCN(c3ccc4c(n3)N3C[C@@H](CCCNc5cccc(n5)S(=O)(=O)NC4=O)CC3(C)C)C2=O)CCCCC1 (stereo partly drawn) [Compound 101, (14S)-12,12-dimethyl-8-{3-[(1-methylcyclohexyl)methyl]-2-oxopyrrolidin-1-yl}-2λ^6-thia-3,9,11,18,23-pentaazatetracyclo[17.3.1.111,14.05,10]tetracosa-1(22),5,7,9,19(23),20-hexaene-2,2,4-trione] | > 6.00 | ++ (++ is 30-60%)
CC(C)(C)CCCC1CCN(c2ccc3c(n2)N2C[C@@H](CCCNc4cccc(n4)S(=O)(=O)NC3=O)CC2(C)C)C1=O (stereo partly drawn) [Compound 102, (14S)-8-[3-(4,4-Dimethylpentyl)-2-oxopyrrolidin-1-yl]-12,12-dimethyl-2λ^6-thia-3,9,11,18,23-pentaazatetracyclo[17.3.1.111,14.05,10]tetracosa-1(22),5,7,9,19(23),20-hexaene-2,2,4-trione] | > 6.00 | +++ (+++ is >60%)
CC(C)(C)CCN1CCN(c2ccc3c(n2)N2C[C@@H](CCCNc4cccc(n4)S(=O)(=O)NC3=O)CC2(C)C)C1=O [Compound 128, (14S)-8-[3-(3,3-dimethylbutyl)-2-oxoimidazolidin-1-yl]-12,12-dimethyl-2λ^6-thia-3,9,11,18,23-pentaazatetracyclo[17.3.1.111,14.05,10]tetracosa-1(22),5,7,9,19(23),20-hexaene-2,2,4-trione] | > 6.00 | +++ (+++ is >60%)
CN1CCCCC2CN(c3nc(-n4ccc(OCCC5(C(F)(F)F)CC5)n4)ccc3C(=O)NS(=O)(=O)c3ccc1nc3)C(C)(C)C2 (centres unmarked) [Compound 132, 12,12,19-trimethyl-8-(3-{2-[1-(trifluoromethyl)cyclopropyl]ethoxy}-1H-pyrazol-1-yl)-2λ^6-thia-3,9,11,19,21-pentaazatetracyclo[18.2.2.111,14.05,10]pentacosa-1(23),5,7,9,20(24),21-hexaene-2,2,4-trione] | > 6.00 | ++ (++ is 30-60%)
CC1(C)C[C@@H]2CCCNc3cccc(n3)S(=O)(=O)NC(=O)c3ccc(N4CCC(OCCC5(C(F)(F)F)CC5)C4=O)nc3N1C2 (stereo partly drawn) [Compound 158, (14S)-12,12-Dimethyl-8-(2-oxo-3-{2-[1-(trifluoromethyl)cyclopropyl]ethoxy}pyrrolidin-1-yl)-2λ^6-thia-3,9,11,18,23-pentaazatetracyclo[17.3.1.111,14.05,10]tetracosa-1(22),5,7,9,19(23),20-hexaene-2,2,4-trione] | > 6.00 | +++ (+++ is >60%)
CC(C)(C)CCN1CCN(c2ccc3c(n2)N2CC(CCCn4ccc(n4)S(=O)(=O)NC3=O)CC2(C)C)C1=O (centres unmarked) [Compound 168, 4-[3-(3,3-dimethylbutyl)-2-oxoimidazolidin-1-yl]-20,20-dimethyl-10λ^6-thia-1,3,9,14,22-pentaazatetracyclo[16.2.1.111,14.02,7]docosa-2,4,6,11(22),12-pentaene-8,10,10-trione] | < 5.52 | + (+ is <30%)
CC(C)(C)CCCN1CCN(c2ccc3c(n2)N2CC(CCCn4ccc(n4)S(=O)(=O)NC3=O)CC2(C)C)C1=O (centres unmarked) [Compound 169, 4-[3-(4,4-dimethylpentyl)-2-oxoimidazolidin-1-yl]-20,20-dimethyl-10λ^6-thia-1,3,9,14,22-pentaazatetracyclo[16.2.1.111,14.02,7]docosa-2,4,6,11(22),12-pentaene-8,10,10-trione] | > 6.00 | ++ (++ is 30-60%)
CC1(C)C[C@H]2CCCn3ccc(n3)S(=O)(=O)NC(=O)c3ccc(-n4ccc(OCCC5C6(CC6)C56CC6)n4)nc3N1C2 [Compound 186, (18R)-4-[3-(2-{dispiro[2.0.2.1]heptan-7-yl}ethoxy)-1H-pyrazol-1-yl]-20,20-dimethyl-10λ^6-thia-1,3,9,14,22-pentaazatetracyclo[16.2.1.111,14.02,7]docosa-2,4,6,11(22),12-pentaene-8,10,10-trione] | > 6.00 | + (+ is <30%)
